# Laboratory results as given in US6506766B1 (Abbott Laboratories, priority 1998, dated 2003).
# Like-named read-outs stand apart in the source and are kept apart here.
# Columns and labels:
# [1] = molecular target: T1, human progesterone receptor-A [PRA] isoform (Homo sapiens, UniProt P06401); assay: Radioligand binding with human progesterone receptor cytosol ([3H]-progesterone competition)
# T1 construct: host or cells: insect SF21 cells (baculovirus)
# T1 sequence (P06401 1-769 isoform P06401-2): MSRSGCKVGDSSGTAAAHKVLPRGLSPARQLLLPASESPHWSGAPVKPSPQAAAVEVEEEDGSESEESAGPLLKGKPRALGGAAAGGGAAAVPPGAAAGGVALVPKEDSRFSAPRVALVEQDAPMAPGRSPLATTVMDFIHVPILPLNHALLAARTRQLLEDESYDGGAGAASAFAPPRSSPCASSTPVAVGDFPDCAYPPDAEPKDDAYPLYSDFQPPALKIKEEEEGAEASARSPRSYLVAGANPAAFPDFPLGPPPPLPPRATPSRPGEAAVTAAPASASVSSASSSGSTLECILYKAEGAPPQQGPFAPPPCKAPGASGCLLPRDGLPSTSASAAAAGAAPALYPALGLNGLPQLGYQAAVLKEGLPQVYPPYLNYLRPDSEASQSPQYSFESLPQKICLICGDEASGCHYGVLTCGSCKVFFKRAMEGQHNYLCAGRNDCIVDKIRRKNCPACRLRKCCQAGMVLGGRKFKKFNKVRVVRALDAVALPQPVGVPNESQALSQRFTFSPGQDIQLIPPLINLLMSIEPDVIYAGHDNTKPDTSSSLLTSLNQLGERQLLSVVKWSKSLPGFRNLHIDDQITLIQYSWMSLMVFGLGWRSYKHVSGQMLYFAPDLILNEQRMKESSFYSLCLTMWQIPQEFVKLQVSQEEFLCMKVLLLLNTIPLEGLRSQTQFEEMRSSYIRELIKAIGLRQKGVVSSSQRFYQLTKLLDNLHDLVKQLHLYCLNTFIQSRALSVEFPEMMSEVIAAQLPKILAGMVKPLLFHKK
# [2] = molecular target: T2, human glucocorticoid receptor-α [GRX] isoform (Homo sapiens, UniProt P04150); assay: Radioligand binding with human glucocorticoid receptor cytosol ([3H]-dexamethasone competition)
# T2 construct: host or cells: insect SF21 cells (baculovirus)
# T2 sequence (P04150 1-777): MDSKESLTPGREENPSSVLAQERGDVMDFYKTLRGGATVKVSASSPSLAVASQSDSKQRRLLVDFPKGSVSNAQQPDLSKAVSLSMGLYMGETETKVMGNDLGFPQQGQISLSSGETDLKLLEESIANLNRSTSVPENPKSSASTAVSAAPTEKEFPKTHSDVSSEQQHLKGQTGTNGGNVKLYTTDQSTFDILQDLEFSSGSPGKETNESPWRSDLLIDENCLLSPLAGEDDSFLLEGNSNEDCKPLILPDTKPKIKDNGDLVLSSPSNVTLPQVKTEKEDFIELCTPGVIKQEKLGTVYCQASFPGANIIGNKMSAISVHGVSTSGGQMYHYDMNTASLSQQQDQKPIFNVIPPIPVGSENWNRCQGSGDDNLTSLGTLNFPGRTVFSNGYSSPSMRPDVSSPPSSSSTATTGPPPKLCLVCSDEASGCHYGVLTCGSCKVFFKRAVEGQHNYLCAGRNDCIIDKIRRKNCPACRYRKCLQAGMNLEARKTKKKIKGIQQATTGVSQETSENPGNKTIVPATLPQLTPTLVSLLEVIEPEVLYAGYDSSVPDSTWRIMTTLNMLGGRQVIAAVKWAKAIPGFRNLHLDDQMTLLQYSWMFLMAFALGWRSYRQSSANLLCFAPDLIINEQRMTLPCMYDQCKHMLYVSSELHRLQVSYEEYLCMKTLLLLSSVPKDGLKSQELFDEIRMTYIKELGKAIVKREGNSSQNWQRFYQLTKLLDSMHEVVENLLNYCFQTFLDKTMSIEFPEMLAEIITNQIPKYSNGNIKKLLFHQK
# [3] = PRA cytosol expressed in insect SF21 cells, [3H]Prog ~0.8 nM, 4° C. overnight, Ki by Cheng-Prusoff, KL ~4.5 nM, read-out: Ki (nM) PR
# [4] = GRX cytosol expressed in insect SF21 cells, [3H]-Dex ~0.9 nM, 4° C. overnight, Ki by Cheng-Prusoff, KL ~[…], read-out: Ki (nM) GR
Structure (SMILES),"Ki [1, 3] [nM]","Ki [2, 4] [nM]",also measured
COc1c(O)ccc2c1-c1ccc3c(c1C(c1ccccc1OC(=O)N(C)C)O2)C(C)=CC(C)(C)N3 (stereo not drawn) [Example 402],–,–,Ki ([1]; Ki (nM) PR): 10100 nM; Ki ([2]; Ki (nM) GR): 3.3 nM
"COc1c(OC(=O)N(C)C)ccc2c1-c1ccc3c(c1C(c1ccccc1OC(=O)N(C)C)O2)C(C)=CC(C)(C)N3 (stereo not drawn) [Example 403, 2,5-Dihydro-9-N,N-dimethylcarbamoyloxy-10-methoxy-2,2,4-trimethyl-5-([2-N,N-dimethylcarbamoyloxy]phenyl)-1H-[1]benzopyrano[3,4-f]quinoline]",–,–,Ki ([1]; Ki (nM) PR): ≥ 10000 nM; Ki ([2]; Ki (nM) GR): 131 nM
"CCC1Oc2ccc(O)c(Cl)c2-c2ccc3c(c21)C(C)=CC(C)(C)N3 (stereo not drawn) [Example 404, 2,5-Dihydro-9-hydroxy-10-chloro-2,2,4-trimethyl-5-ethyl-1H-[1]benzopyrano[3,4-f]quinoline]",49.7,1.3,–
"CC1=CC(C)(C)Nc2ccc3c(c21)C(C(C)C)Oc1ccc(O)c(Cl)c1-3 (stereo not drawn) [Example 405, 2,5-Dihydro-9-hydroxy-10-chloro-2,2,4-trimethyl-5-isopropyl-1H-[1]benzopyrano[3,4-f]quinoline]",75.1,1.1,–
"COc1c(O)ccc2c1-c1ccc3c(c1C(=Cc1ccccc1)O2)C(C)=CC(C)(C)N3 [Example 406, 9-Hydroxy-10-methoxy-5-(phenylmethylene)-2,2,4-trimethyl-1H-2,5-dihydro-[1]benzopyrano[3,4-f]quinoline]",97.9,2.3,–
"CCCCC1Oc2ccc(O)c(Cl)c2-c2ccc3c(c21)C(C)=CC(C)(C)N3 (stereo not drawn) [Example 407, 2,5-Dihydro-9-hydroxy-10-chloro-2,2,4-trimethyl-5-butyl-1H-[1]benzopyrano[3,4-f]quinoline]",16.4,1.8,–
"COc1c(O)ccc2c1-c1ccc3c(c1C(c1nccs1)O2)C(C)=CC(C)(C)N3 (stereo not drawn) [Example 408, 2,5-Dihydro-9-hydroxy-10-methoxy-2,2,4-trimethyl-5-(1-thiazol-2-yl)-1H-[1]benzopyrano[3,4-f]quinoline]",14100,112,–
"CC1=CC(C)(C)Nc2ccc3c(c21)C(CC(C)C)Oc1ccc(O)c(Cl)c1-3 (stereo not drawn) [Example 409, 2,5-Dihydro-9-hydroxy-10-chloro-2,2,4-trimethyl-5-(2-methylpropyl)-1H-[1]benzopyrano[3,4-f]quinoline]",42,2.7,–
"C=CCC1Oc2ccc(CO)c(Cl)c2-c2ccc3c(c21)C(C)=CC(C)(C)N3 (stereo not drawn) [Example 410, 2,5-Dihydro-9-hydroxymethyl-10-chloro-2,2,4-trimethyl-5-allyl-1H-[1]benzopyrano[3,4-f]quinoline]",25.7,1.1,–
"COc1c(O)ccc2c1-c1ccc3c(c1C(=Cc1cccc(F)c1)O2)C(C)=CC(C)(C)N3 [Example 412, 9-Hydroxy-10-methoxy-5-([3-fluorophenyl]methylene)-2,2,4-trimethyl-1H-2,5-dihydro-[1]benzopyrano[3,4-f]quinoline]",222,9,–
"CC1=CC(C)(C)Nc2ccc3c(c21)C(=Cc1ccccn1)Oc1ccc(O)c(Cl)c1-3 [Example 413, 9-Hydroxy-10-chloro-5-([2-pyridyl]methylene)-2,2,4-trimethyl-1H-2,5-dihydro-[1]benzopyrano[3,4-f]quinoline]",60.8,0.22,–
"COc1c(O)ccc2c1-c1ccc3c(c1C(c1cc(Cl)cc(Cl)c1)O2)C(C)=CC(C)(C)N3 (stereo not drawn) [Example 416, 2,5-Dihydro-9-hydroxy-10-methoxy-2,2,4-trimethyl-5-(3,5-dichlorophenyl)-1H-[1]benzopyrano[3,4-f]quinoline]",394,3.1,–
"CC1=C[C@@H]([C@@H]2Oc3ccc(O)c(Cl)c3-c3ccc4c(c32)C(C)=CC(C)(C)N4)CCC1 [Example 417, (−)(5S,3′S)2,5-Dihydro-9-hydroxy-10-chloro-2,2,4-trimethyl-5-(1-methylcyclohexen-3-yl)-1H-[1]benzopyrano[3,4-f]quinoline]",10.5,3,–
CC1=C[C@H]([C@@H]2Oc3ccc(O)c(Cl)c3-c3ccc4c(c32)C(C)=CC(C)(C)N4)CCC1 [Example 418],2.1,1.4,–
"CC1=C[C@@H]([C@H]2Oc3ccc(O)c(Cl)c3-c3ccc4c(c32)C(C)=CC(C)(C)N4)CCC1 [Example 419, (+)(5R,3′S)2,5-Dihydro-9-hydroxy-10-chloro-2,2,4-trimethyl-5-(1-methylcyclohexen-3-yl)-1H-[1]benzopyrano[3,4-f]quinoline]",286,56.9,–
CC1=C[C@H]([C@H]2Oc3ccc(O)c(Cl)c3-c3ccc4c(c32)C(C)=CC(C)(C)N4)CCC1 [Example 420],2400,125,–
"COc1c(OC(=O)CCC(=O)N(C)C)ccc2c1-c1ccc3c(c1C(C(C)C)O2)C(C)=CC(C)(C)N3 (stereo not drawn) [Example 423, 2,5-Dihydro-9-(4-N,N-dimethylamino-4-oxo-butanoyloxy)-10-methoxy-2,2,4-trimethyl-5-(1-methylethyl)-1H-[1]benzopyrano[3,4-f]quinoline]",8180,0.67,–
"COc1c(OC(=O)CCC(=O)N(C)C)ccc2c1-c1ccc3c(c1C(Cc1ccccc1)O2)C(C)=CC(C)(C)N3 (stereo not drawn) [Example 424, 2,5-Dihydro-9-(4-N,N-dimethylamino-4-oxo-butanoyloxy)-10-methoxy-5-(phenylmethyl)-2,2,4-trimethyl-1H-[1]benzopyrano[3,4-f]quinoline]",1950,0.84,–
"COc1c(OC(=O)CCC(=O)N(C)C)ccc2c1-c1ccc3c(c1C(c1cccs1)O2)C(C)=CC(C)(C)N3 (stereo not drawn) [Example 425, 2,5-Dihydro-9-(4-N,N-dimethylamino-4-oxo-butanoyloxy)-10-methoxy-2,2,4-trimethyl-5-(2-thienyl)-1H-[1]benzopyrano[3,4-f]quinoline]",3940,0.35,–
"C=CCC1Oc2ccc(OC(=O)CCCN(C)C)c(OC)c2-c2ccc3c(c21)C(C)=CC(C)(C)N3 (stereo not drawn) [Example 426, 2,5-Dihydro-9-(4-N,N-dimethylaminobutanoyloxy)-10-methoxy-2,2,4-trimethyl-5-(2-propenyl)-1H-[1]benzopyrano[3,4-f]quinoline]",110,0.85,–
"C=CCC1Oc2ccc(OC(=O)NCC(=O)OCC)c(OC)c2-c2ccc3c(c21)C(C)=CC(C)(C)N3 (stereo not drawn) [Example 427, 9-(2-Ethoxy-2-oxo-ethylaminocarbonyl)-oxy-10-methoxy-5-(3-propenyl)-2,2,4-trimethyl-1H-2,5-dihydro-[1]benzopyrano[3,4-f]quinoline]",–,–,Ki ([1]; read-out: Ki (nM) PR): 2200 nM; Ki ([2]; read-out: Ki (nM) GR): 7.8 nM
"COc1c(O)ccc2c1-c1ccc3c(c1C(=Cc1ccccc1)O2)C(C)=CC(C)(C)N3 [Example 430, 9-Hydroxy-10-methoxy-5-(phenylmethylene)-2,2,4-trimethyl-1H-2,5-dihydro-[1]benzopyrano[3,4-f]quinoline]",281,4.8,–
"C=CCC1Oc2ccc(OC(=S)N(C)C)c(OC)c2-c2ccc3c(c21)C(C)=CC(C)(C)N3 (stereo not drawn) [Example 431, 9-(Dimethylaminothiocarbonyl)-oxy-10-methoxy-5-(3-propenyl)-2,2,4-trimethyl-1H-2,5-dihydro-[1]benzopyrano[3,4-f]quinoline]",≥ 10000,113,–
"CC1=CC(C)(C)Nc2ccc3c(c21)C(c1cc(F)c(F)c(F)c1)Oc1ccc(O)c(Cl)c1-3 (stereo not drawn) [Example 435, 2,5-Dihydro-9-hydroxy-10-chloro-2,2,4-trimethyl-5-(3,4,5-trifluorophenyl)-1H-[1]benzopyrano[3,4-f]quinoline]",734,120,–
